In test [1] the test system is MDA-MB231 cell lines. Nature of the test: MTT cell viability assay (IC50). Format: cell-based. Conditions: Homo sapiens, MDA-MB-231; MDA-MB231 cells; single dose of treatment; concentrations 10-9 to 104 M; 570 nm absorbance; FIG. 1; read-out: IC50 (half-maximal inhibitory concentration), MTT cell viability. The method, then: HCT 116 colon cancer and MDA-MB231 breast cancer cell lines are used in cell culture experiments.
Cells were treated with high-glucose DMEM medium (Biosera) supplemented with 10% FBS (Gibco) and 1× penicillin/streptomycin (Multicell). The assay was designed to contain 10,000 cells for each well of 24-well cell culture plates before being treated with inhibitors.
Compound of formula I was dissolved with DMSO as 20 mM stock. 24 hours later, the solution was diluted in DMEM with 10% FBS and final concentration of vehicle DMSO was 0.5% at maximum. Therefore, the vehicle group included 0.5% DMSO concentration in experiments. Intensive cultivation of cells causes a decrease in proliferation capacity.
The MTT cell viability assay was used to detect values of half-maximal inhibitory concentration (IC50). Different concentrations of compound of formula I ranging between 10-9 to 104 M were tested on MDA-MB231 cell lines with single dose of treatment. 570 nm absorbance values were recorded and IC50 values were calculated by dose response—inhibition curves and nonlinear regression analysis on Graphpad Prism 8 software.

In test [2] the target is MDM2 protein (Homo sapiens, UniProt Q00987). The following applies: compared with a natural p53 peptide; cited from earlier work.
MDM2 protein, sequence (Q00987 whole entry, species assumed): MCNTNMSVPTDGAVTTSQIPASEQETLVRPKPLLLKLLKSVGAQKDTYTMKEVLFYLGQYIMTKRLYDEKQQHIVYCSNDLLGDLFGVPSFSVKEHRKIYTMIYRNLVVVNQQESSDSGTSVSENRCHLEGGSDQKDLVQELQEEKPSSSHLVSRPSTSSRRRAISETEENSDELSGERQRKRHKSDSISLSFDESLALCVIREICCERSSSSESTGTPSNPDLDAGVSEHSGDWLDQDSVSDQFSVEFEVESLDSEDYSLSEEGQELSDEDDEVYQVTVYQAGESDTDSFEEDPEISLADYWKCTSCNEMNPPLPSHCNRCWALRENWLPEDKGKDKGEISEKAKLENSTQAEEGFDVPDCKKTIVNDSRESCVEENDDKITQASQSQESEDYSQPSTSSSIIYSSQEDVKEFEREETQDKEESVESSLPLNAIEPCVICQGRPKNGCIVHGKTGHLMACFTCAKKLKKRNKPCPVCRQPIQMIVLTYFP

In the case of `O=C(NCc1nc(-c2ccccc2)no1)NC(Cc1c[nH]c2ccccc12)C(=O)O` (centres unmarked) [compound of formula I], the IC50 in test [1] amounted to 891 nM.

For the compound MI-319, the “binding affinity to MDM2 protein relative to natural p53 peptide” value in test [2] is on record as 500 fold.

The record behind these values is US20240270730A1, “DRG-MDM2-2 FOR USE AS A NOVEL MOUSE DOUBLE MINUTE 2 (MDM2) INHIBITOR” (BAHCESEHIR UNIVERSITESI, priority 2020, published 2024).
